The IC50 is the midpoint of a concentration-inhibition curve.

We go through 16 molecules from ChEMBL document CHEMBL1144052, “Cytotoxic 3,4-secoapotirucallanes from Aaglaia argentea bark” (J Nat Prod, 1999).

Converted amounts (≈) assume the structure as drawn. The source made the active and inactive calls. No cut-off for these calls is given here.

The test system of the test is KB. The test is described as follows: Cytotoxicity against human KB cells. It is filed as functional, cell-based.
`C/C=C(\C)[C@@H](O)C(=O)O[C@@H]1C[C@H](C(C)(C)O)[C@](C)(CCC(=O)OC)[C@H]2CC[C@]3(C)C(=CC[C@H]3[C@H]3CO[C@H](C=C(C)C)C3)[C@@]21C` [ARGENTINIC ACID C METHYL ESTER] displayed a half-maximal inhibitory concentration (IC50) of 2 µg/mL (≈ 3.25 µM).

`COC(=O)CC[C@@]1(C)[C@@H](C(C)(C)O)C[C@@H](OC(=O)[C@H](O)C(C)C)[C@@]2(C)C3=CC[C@@H]([C@H]4CO[C@H](C=C(C)C)C4)[C@]3(C)CC[C@H]12` [ARGENTINIC ACID B METHYL ESTER] yielded an IC50 of 2 µg/mL (≈ 3.32 µM). `C/C=C(\C)[C@@H](O)C(=O)O[C@@H]1C[C@H](C(C)(C)O)[C@](C)(CCC(=O)OC)[C@H]2[C@H](OC(=O)[C@H](O)C(C)C)C[C@]3(C)C(=CC[C@H]3[C@H]3CO[C@H](C=C(C)C)C3)[C@@]21C` [ARGENTINIC ACID E METHYL ESTER] came in with a concentration for half-maximal inhibition (IC50) of 3.5 µg/mL (≈ 4.79 µM). Molecule `CC[C@@H](C)[C@@H](O)C(=O)O[C@@H]1C[C@H](C(C)(C)O)[C@](C)(CCC(=O)OC)[C@H]2CC[C@]3(C)C(=CC[C@H]3[C@H]3CO[C@H](C=C(C)C)C3)[C@@]21C` [ARGENTINIC ACID A METHYL ESTER] showed a 50% inhibitory concentration (IC50) of 2 µg/mL (≈ 3.24 µM). In the case of `CC[C@@H](C)[C@@H](O)C(=O)O[C@@H]1C[C@]2(C)C(=CC[C@H]2[C@H]2CO[C@H](C=C(C)C)C2)[C@@]2(C)[C@H]1[C@@](C)(CCC(=O)O)[C@@H](C(C)(C)O)C[C@H]2OC(=O)[C@H](O)[C@H](C)CC`, the result was inactive. As for `C/C=C(\C)[C@@H](O)C(=O)O[C@@H]1C[C@H](C(C)(C)O)[C@](C)(CCC(=O)O)[C@H]2CC[C@]3(C)C(=CC[C@H]3[C@H]3CO[C@H](C=C(C)C)C3)[C@@]21C`, the outcome was inactive.

Take `C/C=C(/C)[C@@H](O)C(=O)O[C@@H]1C[C@H](C(C)(C)O)[C@](C)(CCC(=O)OC)[C@H]2[C@H](OC(=O)[C@H](O)/C(C)=C/C)C[C@]3(C)C(=CC[C@H]3[C@H]3CO[C@H](C=C(C)C)C3)[C@@]21C` [ARGENTINIC ACID H METHYL ESTER]: the IC50 worked out at 2 µg/mL (≈ 2.69 µM).

On to `CC(C)=C[C@@H]1C[C@@H]([C@@H]2CC=C3[C@@]4(C)[C@H](CC[C@]32C)[C@@](C)(CCC(=O)O)[C@@H](C(C)(C)O)C[C@H]4OC(=O)[C@H](O)C(C)C)CO1`, for which the outcome was inactive. For `CC[C@@H](C)[C@@H](O)C(=O)O[C@@H]1C[C@]2(C)C(=CC[C@H]2[C@H]2CO[C@H](C=C(C)C)C2)[C@@]2(C)[C@H]1[C@@](C)(CCC(=O)OC)[C@@H](C(C)(C)O)C[C@H]2OC(=O)[C@H](O)C(C)C` [ARGENTINIC ACID F METHYL ESTER], the half-inhibitory concentration (IC50) is 2 µg/mL (≈ 2.73 µM). For the molecule `C/C=C(\C)[C@@H](O)C(=O)O[C@@H]1C[C@H](C(C)(C)O)[C@](C)(CCC(=O)O)[C@H]2[C@H](OC(=O)[C@H](O)[C@H](C)CC)C[C@]3(C)C(=CC[C@H]3[C@H]3CO[C@H](C=C(C)C)C3)[C@@]21C`, the result was inactive.

Regarding `C/C=C(/C)[C@@H](O)C(=O)O[C@@H]1C[C@H](C(C)(C)O)[C@](C)(CCC(=O)O)[C@H]2[C@H](OC(=O)[C@H](O)/C(C)=C/C)C[C@]3(C)C(=CC[C@H]3[C@H]3CO[C@H](C=C(C)C)C3)[C@@]21C`, the result was inactive. `C/C=C(\C)[C@@H](O)C(=O)O[C@@H]1C[C@H](C(C)(C)O)[C@](C)(CCC(=O)O)[C@H]2[C@H](OC(=O)[C@H](O)C(C)C)C[C@]3(C)C(=CC[C@H]3[C@H]3CO[C@H](C=C(C)C)C3)[C@@]21C`: the outcome was inactive. As for `CC[C@@H](C)[C@@H](O)C(=O)O[C@@H]1C[C@H](C(C)(C)O)[C@](C)(CCC(=O)O)[C@H]2CC[C@]3(C)C(=CC[C@H]3[C@H]3CO[C@H](C=C(C)C)C3)[C@@]21C`, the outcome was inactive. `CC[C@@H](C)[C@@H](O)C(=O)O[C@@H]1C[C@]2(C)C(=CC[C@H]2[C@H]2CO[C@H](C=C(C)C)C2)[C@@]2(C)[C@H]1[C@@](C)(CCC(=O)OC)[C@@H](C(C)(C)O)C[C@H]2OC(=O)[C@H](O)[C@H](C)CC` [ARGENTINIC ACID G METHYL ESTER] had a 50% inhibitory concentration (IC50) of 2.5 µg/mL (≈ 3.35 µM). For `CC[C@@H](C)[C@@H](O)C(=O)O[C@@H]1C[C@]2(C)C(=CC[C@H]2[C@H]2CO[C@H](C=C(C)C)C2)[C@@]2(C)[C@H]1[C@@](C)(CCC(=O)O)[C@@H](C(C)(C)O)C[C@H]2OC(=O)[C@H](O)C(C)C`, the outcome was inactive. With `C/C=C(\C)[C@@H](O)C(=O)O[C@@H]1C[C@H](C(C)(C)O)[C@](C)(CCC(=O)OC)[C@H]2[C@H](OC(=O)[C@H](O)[C@H](C)CC)C[C@]3(C)C(=CC[C@H]3[C@H]3CO[C@H](C=C(C)C)C3)[C@@]21C` [ARGENTINIC ACID D METHYL ESTER], the IC50 came out at 1 µg/mL (≈ 1.34 µM).
